Measurements published in patent publication US8623843B2, “Antimicrobial compound and preparation thereof” (Shenzhen University, priority 2009, dated 2014).
Values after ≈ are worked out from the molar mass of the structure shown.

Assays:
Assay type in all cases: cell-based
E. coli (8099) = assay: minimum inhibitory / bactericidal concentration for E. coli
S. aureas = assay: persistent antimicrobial activity of treated glass surface, colony (plate) counting method, S. aureas; parameters: concentration or dose not given beside the values
Procedure: (§1) The resulting products from the above examples were used for treating a glass surface respectively, a superhydrophilic surface at a contact angle of less than 10° […]. was all obtained. In addition, they were tested for antimicrobial activity and persistent antimicrobial activity using the colony counting method, and the results are shown in table 1.

S. aureas (ATCC6538) = assay: minimum inhibitory / bactericidal concentration for S. aureas
E. coli = assay: persistent antimicrobial activity of treated glass surface, colony (plate) counting method, E. coli
Procedure: as §1

Compound	minimum bactericidal concentration (MBC) (E. coli (8099))	minimum inhibitory concentration (MIC) (E. coli (8099))	persistent antimicrobial activity (plate counting method) (S. aureas; wash times 0)	persistent antimicrobial activity (plate counting method) (S. aureas; wash times 1)	persistent antimicrobial activity (plate counting method) (S. aureas; wash times 5)	persistent antimicrobial activity (plate counting method) (S. aureas; wash times 10)	persistent antimicrobial activity (plate counting method) (S. aureas; wash times 30)	minimum bactericidal concentration (MBC) (S. aureas (ATCC6538))	minimum inhibitory concentration (MIC) (S. aureas (ATCC6538))	persistent antimicrobial activity (plate counting method) (E. coli; wash times 0)	persistent antimicrobial activity (plate counting method) (E. coli; wash times 1)	persistent antimicrobial activity (plate counting method) (E. coli; wash times 5)	persistent antimicrobial activity (plate counting method) (E. coli; wash times 10)	persistent antimicrobial activity (plate counting method) (E. coli; wash times 30)
CCO[Si](CCC[N+](C)(C)CCCS(=O)(=O)[O-])(OCC)OCC [Embodiment 1, (CH3CH2O)3Si(CH2)3^+N(CH3)2(CH2)3SO3^−]	20 mg/mL (≈ 53.8 mM)	15 mg/mL (≈ 40.4 mM)	99.9%	99.9%	99.6%	99.5%	99.0%	20 mg/mL (≈ 53.8 mM)	15 mg/mL (≈ 40.4 mM)	99.9%	99.8%	99.5%	99.0%	99.2%
CCO[Si](C)(CCC[N+](C)(C)CC(=O)[O-])OCC [Embodiment 3, (CH3CH2O)2SiCH3(CH2)3^+N(CH3)2CH2CO2^−]	25 mg/mL (≈ 90.1 mM)	20 mg/mL (≈ 72.1 mM)	99.9%	99.9%	99.5%	98.2%	97.6%	25 mg/mL (≈ 90.1 mM)	20 mg/mL (≈ 72.1 mM)	99.9%	99.8%	99.2%	97.9%	97.2%
CCO[Si](C)(CCC[N+](C)(C)CCC(=O)[O-])OCC [Embodiment 4, (CH3CH2O)2SiCH3(CH2)3^+N(CH3)2(CH2)2CO2^−]	20 mg/mL (≈ 68.6 mM)	10 mg/mL (≈ 34.3 mM)	99.9%	99.9%	99.6%	98.9%	98.3%	20 mg/mL (≈ 68.6 mM)	10 mg/mL (≈ 34.3 mM)	99.9%	99.8%	99.0%	98.6%	98.1%
CC[N+](CC)(CCC[Si](OC)(OC)OC)CCCS(=O)(=O)[O-] [Embodiment 5, (CH3O)3Si(CH2)3^+N(CH2CH3)2(CH2)3SO3^−]	20 mg/mL (≈ 55.9 mM)	15 mg/mL (≈ 42 mM)	99.9%	99.9%	99.5%	98.8%	98.2%	20 mg/mL (≈ 55.9 mM)	15 mg/mL (≈ 42 mM)	99.9%	99.7%	99.0%	98.7%	98.0%
CC[N+](CC)(CCC[Si](OC)(OC)OC)CCS(=O)(=O)[O-] [Embodiment 6, (CH3O)3Si(CH2)3^+N(CH2CH3)2(CH2)2SO3^−]	25 mg/mL (≈ 72.8 mM)	20 mg/mL (≈ 58.2 mM)	99.9%	99.9%	99.5%	98.2%	97.6%	25 mg/mL (≈ 72.8 mM)	20 mg/mL (≈ 58.2 mM)	99.9%	99.8%	99.3%	97.9%	97.2%
CO[Si](CCCNCCNCCCS(=O)(=O)O)(OC)OC [Embodiment 7, (CH3O)3Si(CH2)3NH(CH2)2^+NH2(CH2)3SO3^−]	30 mg/mL (≈ 87.1 mM)	25 mg/mL (≈ 72.6 mM)	99.9%	99.8%	99.6%	99.1%	98.2%	30 mg/mL (≈ 87.1 mM)	25 mg/mL (≈ 72.6 mM)	99.9%	99.5%	99.1%	98.6%	98.0%
CCC[N+](CCC)(CCC[Si](OC)(OC)OC)CCCS(=O)(=O)[O-] [Embodiment 8, (CH3O)3Si(CH2)3^+N(CH2CH2CH3)2(CH2)3SO3^−]	20 mg/mL (≈ 51.9 mM)	15 mg/mL (≈ 38.9 mM)	99.9%	99.9%	99.5%	98.8%	98.5%	20 mg/mL (≈ 51.9 mM)	15 mg/mL (≈ 38.9 mM)	99.9%	99.7%	99.3%	98.7%	98.2%
(CH3CH2O)2SiCH3(CH2CH3)3^+N(CH3)2(CH2)3SO3^− [Embodiment 2]	30 mg/mL	25 mg/mL	99.9%	99.9%	99.9%	99.6%	99.0%	30 mg/mL	25 mg/mL	99.9%	99.9%	99.3%	98.9%	98.5%
